In PMC12472947 (Pharmaceuticals, 2025):

Assays:
[1] = biological target: electric eel AChE [EeAChE] (Electrophorus electricus, UniProt O42275); assay: biochemical; format: biochemical; settings: for IC50: Electric eel AChE, Ellman method, read-out: IC50(nM) ± SD AChE (EeAChE); for SI: Selectivity Index = EqBChE IC50/EeAChE IC50
Description: (§1) The anticholinesterase activity was determined using Ellman’s method, adapted as follows. […] Subsequently, 60 μL of 5,5′-dithiobis(2-nitrobenzoic acid) (DTNB, 1.1 mM) and 30 μL of enzyme solution (electric eel AChE [EeAChE], human AChE [hAChE], or equine serum BChE [EqBChE], 0.20 U/mL) containing 1 mg/mL bovine serum albumin (BSA) were added. […] Enzyme activity was calculated as the percentage relative to untreated controls, subtracting the blank reference. IC50 values were derived via non-linear regression analysis of dose–response curves (Figure S4) using GraphPad Prism v7.0.

[2] = biological target: T1, equine serum BChE [EqBChE] (Equus caballus, UniProt P81908); assay: biochemical; settings: Ellman method, read-out: IC50(nM) ± SD BChE (EqBChE)
T1 construct: equine serum BChE [EqBChE]; from tissue; host or cells: equine serum
T1 sequence (P81908 whole entry): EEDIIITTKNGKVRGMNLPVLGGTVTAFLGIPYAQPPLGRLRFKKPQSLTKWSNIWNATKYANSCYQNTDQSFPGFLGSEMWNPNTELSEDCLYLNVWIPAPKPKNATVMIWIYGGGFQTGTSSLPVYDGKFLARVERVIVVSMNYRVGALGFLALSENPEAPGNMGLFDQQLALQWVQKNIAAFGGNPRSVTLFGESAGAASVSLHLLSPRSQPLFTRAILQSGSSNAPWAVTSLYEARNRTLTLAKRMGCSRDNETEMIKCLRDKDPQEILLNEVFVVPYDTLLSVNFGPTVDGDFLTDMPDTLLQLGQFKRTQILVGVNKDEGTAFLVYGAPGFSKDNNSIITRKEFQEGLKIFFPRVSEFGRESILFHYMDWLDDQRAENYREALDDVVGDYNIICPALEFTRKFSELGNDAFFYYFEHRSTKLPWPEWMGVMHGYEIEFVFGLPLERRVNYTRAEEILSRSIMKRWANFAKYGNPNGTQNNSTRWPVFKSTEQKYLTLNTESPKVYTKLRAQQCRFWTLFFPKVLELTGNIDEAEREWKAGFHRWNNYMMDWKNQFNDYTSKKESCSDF
Description: as §1

Sequence of electric eel AChE [EeAChE] (O42275 24-633): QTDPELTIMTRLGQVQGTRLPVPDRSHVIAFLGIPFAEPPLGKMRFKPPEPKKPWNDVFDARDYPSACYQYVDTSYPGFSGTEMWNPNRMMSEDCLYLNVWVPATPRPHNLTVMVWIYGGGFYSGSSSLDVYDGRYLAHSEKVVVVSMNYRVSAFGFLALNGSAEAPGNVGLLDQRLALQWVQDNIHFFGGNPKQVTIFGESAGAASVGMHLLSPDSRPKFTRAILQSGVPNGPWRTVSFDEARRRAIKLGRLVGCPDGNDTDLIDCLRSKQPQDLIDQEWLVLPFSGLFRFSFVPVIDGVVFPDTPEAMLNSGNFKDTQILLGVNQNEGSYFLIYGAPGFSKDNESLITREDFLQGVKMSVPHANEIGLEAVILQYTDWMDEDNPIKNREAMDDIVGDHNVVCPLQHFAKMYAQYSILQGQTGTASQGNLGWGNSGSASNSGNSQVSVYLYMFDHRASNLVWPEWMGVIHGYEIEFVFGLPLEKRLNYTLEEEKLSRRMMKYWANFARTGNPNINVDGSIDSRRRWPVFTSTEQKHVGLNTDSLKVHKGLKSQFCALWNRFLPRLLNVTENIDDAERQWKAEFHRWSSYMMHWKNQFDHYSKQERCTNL

| SMILES | IC50 [1] [nM] | SI [1] | IC50 [2] [nM] |
| --- | --- | --- | --- |
| O=c1oc2cc(OCCCCN3CCCCC3)ccc2cc1-c1cn(-c2ccccc2)nn1 [Compound 1c, 3-(1-Phenyl-1H-1,2,3-triazol-4-yl)-7-(4-(piperidin-1-yl)butoxy)-2H-chromen-2-one] | 1110 ± 10 | ~2 | 2410 ± 29 |
| O=c1oc2cc(OCCCCCN3CCCCC3)ccc2cc1-c1cn(-c2ccccc2)nn1 [Compound 1d, 3-(1-Phenyl-1H-1,2,3-triazol-4-yl)-7-((5-(piperidin-1-yl)pentyl)oxy)-2H-chromen-2-one] | 4790 ± 290 | ~1 | 3540 ± 81 |
| CC1CCN(CCOc2ccc3cc(-c4cn(-c5ccccc5)nn4)c(=O)oc3c2)CC1 [Compound 1e, 7-(2-(4-Methylpiperidin-1-yl)ethoxy)-3-(1-phenyl-1H-1,2,3-triazol-4-yl)-2H-chromen-2-one] | 1690 ± 75 | ~7 | 11100 |
| CN1CCN(CCOc2ccc3cc(-c4cn(-c5ccccc5)nn4)c(=O)oc3c2)CC1 [Compound 1f, 7-(2-(4-Methylpiperazin-1-yl)ethoxy)-3-(1-phenyl-1H-1,2,3-triazol-4-yl)-2H-chromen-2-one] | 3160 ± 76 | 3 | 8140 ± 890 |
| O=c1oc2cc(OCCN3CCNCC3)ccc2cc1-c1cn(-c2ccccc2)nn1 [Compound 1g, 3-(1-Phenyl-1H-1,2,3-triazol-4-yl)-7-(2-(piperazin-1-yl)ethoxy)-2H-chromen-2-one] | 1060 ± 74 | ~8 | 9840 ± 130 |
| COc1ccccc1Cn1cc(-c2cc3ccc(OCCN4CCCCC4)cc3oc2=O)nn1 [Compound 1i, 3-(1-(2-Methoxybenzyl)-1H-1,2,3-triazol-4-yl)-7-(2-(piperidin-1-yl)ethoxy)-2H-chromen-2-one] | 15.3 ± 0.25 | 184 | 2810 ± 230 |
| O=c1oc2cc(OCCN3CCCCC3)ccc2cc1-c1cn(Cc2ccc(F)cc2)nn1 [Compound 1l, 3-(1-(4-Fluorbenzyl)-1H-1,2,3-triazol-4-yl)-7-(2-(piperidin-1-yl)ethoxy)-2H-chromen-2-one] | 23.4 ± 1.77 | 176 | 4120 ± 110 |
| O=c1oc2cc(OCCN3CCCCC3)ccc2cc1-c1cn(Cc2cccc(Cl)c2)nn1 [Compound 1m] | 13.1 ± 0.83 | 149 | 1950 ± 120 |
| O=c1oc2cc(OCCN3CCCCC3)ccc2cc1-c1cn(Cc2ccc(Cl)cc2)nn1 [Compound 1n, 3-(1-(4-Chlorobenzyl)-1H-1,2,3-triazol-4-yl)-7-(2-(piperidin-1-yl)ethoxy)-2H-chromen-2-one] | 104 ± 5.4 | – | 2240 ± 60 |
| O=c1oc2cc(OCCN3CCCCC3)ccc2cc1-c1cn(Cc2cccc(Br)c2)nn1 [Compound 1o, 3-(1-(3-Bromobenzyl)-1H-1,2,3-triazol-4-yl)-7-(2-(piperidin-1-yl)ethoxy)-2H-chromen-2-one] | 7.92 ± 0.48 | 265 | 2090 ± 54 |
| O=c1oc2cc(OCCN3CCCCC3)ccc2cc1-c1cn(Cc2ccc(Br)cc2)nn1 [Compound 1p, 3-(1-(4-Bromobenzyl)-1H-1,2,3-triazol-4-yl)-7-(2-(piperidin-1-yl)ethoxy)-2H-chromen-2-one] | 12.9 ± 0.96 | 88 | 1140 ± 70 |
